Source: paper PMC2992351 (ACS medicinal chemistry letters, 2010)

Molecular target: Grb2 SH2 domain (Homo sapiens, UniProt P62993)
Assay: Isothermal titration calorimetry
Assay type: binding
Details: for Ka / ΔG^o / ΔH^o / ΔS^o / −TΔS^o: ITC at 298 K, average of at least two experiments; for Ka: association constant

Chain of Grb2 SH2 domain (P62993 60-152 limits assumed): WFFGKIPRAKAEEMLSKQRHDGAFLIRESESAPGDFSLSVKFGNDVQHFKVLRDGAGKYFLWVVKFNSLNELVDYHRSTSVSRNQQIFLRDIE

Row | Substance | Ka | ΔG^o | ΔH^o | ΔS^o | −TΔS^o | difference in binding enthalpies of 7 and 8 (ITC, 7 vs 8) | fold greater affinity than linear control 8 (ITC, macrocycle 7 vs linear control 8) | fold lower affinity than acyclic control 4 (ITC, macrocycle vs its acyclic control)
1 | pYVNVP (head to tail) [compound 7] | (1.0 ± 0.20) × 10^7 M^−1 | -9.6 ± 0.09 kcal/mol | -4.3 ± 0.57 kcal/mol | 17.7 ± 1.20 cal mol^−1K^−1 | -5.3 ± 0.36 kcal/mol | 2 kcal/mol | about two-fold | –
2 | pYVNV (head to tail) [compound 2] | (2.3 ± 0.21) × 10^6 M^−1 | -8.7 ± 0.06 kcal/mol | -4.3 ± 0.32 kcal/mol | 14.8 ± 0.54 cal mol^−1K^−1 | -4.4 ± 0.16 kcal/mol | – | – | –
3 | pYVNG (head to tail) [compound 1] | (4.7 ± 0.11) × 10^4 M^−1 | -6.4 ± 0.01 kcal/mol | -3.5 ± 0.26 kcal/mol | 9.8 ± 0.20 cal mol^−1K^−1 | -2.9 ± 0.06 kcal/mol | – | – | about 10 fold
